Data on one compound can be found in ChEMBL document CHEMBL5150017, “Mechanism of Action and Structure-Activity Relationship of α-Conotoxin Mr1.1 at the Human α9α10 Nicotinic Acetylcholine Receptor” (J Med Chem, 2022).

Calls of active or inactive are those of the source. The calls are words filed in the database; no cut-off is given here.

This test concerns Mus musculus. The experiment in a line: Analgesic activity in chronic constriction injury-induced mechanical pain mouse model assessed as increase in paw withdrawal latency at 60 mg/kg measured after 1 to 7 hrs. It is filed as functional, organism-based. Particulars: time 1-7 hrs.

Take `NCC1(CC(=O)O)CCCCC1`: the outcome was Active.
